{
  "source": "patent US8999654B2",
  "about": "“Method of identifying a compound for the treatment or prevention of obesity” (Omeros Corporation, priority 2003, dated 2015)",
  "key": {"[1]": {"tested_on": "CHO cells stably transfected with a GPCR expression vector", "assay": "Intracellular calcium measurement using FLIPR", "assay_type": "cell-based", "settings": "positive controls; FLIPR fluorescence, signal measured for approximately 200 seconds", "description": "Changes in intracellular calcium levels are another recognized indicator of G protein-coupled receptor activity, and such assays can be employed to screen for modulators of GPCR activity. For example, CHO cells stably transfected with a GPCR expression vector are plated at a density of 40,000 cells/well in 96-well plates specially designed to discriminate fluorescence signals emanating from the various wells on the plate. The cells are incubated for 60 minutes at 37° C. in modified Dulbecco's PBS containing pyruvate and 1 g/L glucose with the addition of 1% fetal bovine serum and one of four calcium indicator dyes (Fluo-3™ AM, Fluo-4™ AM, Calcium Green™-1 AM, or Oregon Green™ BAPTA-1 AM). Plates are washed once with modified Dulbecco's PBS without 1% fetal bovine serum and incubated for 10 minutes at 37° C. to remove residual dye from the cellular membrane. […] Fluorescence is measured by Molecular Device's FLIPR with an argon laser (excitation […]) (Kuntzweiler et al., Drug Development Research, 44(1):14-20 (1998)).\nBasal fluorescence of cells was measured for 20 seconds prior to addition of candidate agonist, ATP, or A23187, and the basal fluorescence level was subtracted from the response signal. The calcium signal is measured for approximately 200 seconds, taking readings every two seconds. […]"}, "WT and GPR85 KO mice": {"tested_on": "WT and GPR85 KO mice", "settings": "2.5 g/kg i.p. ethanol, rectal temperature 30 minutes post injection, both WT and GPR85 KO mice", "method": "Initial sensitivity to alcohol is measured in mice after a single (acute) dose. […] Core body temperature was measured rectally (T0) (Physitemp) and then the mice were administered an i.p. dose of 2.5 mg/kg and placed in a Plexiglas dosing chamber. that is the same size as the animal's cage. Core body temperature was measured rectally 30 minutes post injection (T1) and returned to their home cage. Mice were housed in the testing room overnight."}, "WT and GPR88 KO mice [2]": {"tested_on": "WT and GPR88 KO mice", "assay": "Amphetamine-induced hyperactivity (locomotor activity in activity chambers)", "assay_type": "in vivo, mouse", "settings": "amphetamine 2.5 mg/kg i.p., 30 minutes after injection, monitored 20 min, both WT and GPR88 KO mice, p<0.001", "description": "Open field activity was monitored in VersaMax chambers (Accuscan Instruments, Columbus, Ohio) measuring 40×40 cm. Locomotor activity was detected by photobeams breaks as the animal crossed each beam. The animal was placed in the center of the field and then left undisturbed for a period of time (20 min to 2 hr) in order to measure its spontaneous activity in a novel environment. Measurements used to assess locomotor activity included: horizontal activity, total distance traveled, vertical activity (rearing events—animal raises up on hindlimbs), rotation, stereotypy, and distance traveled in the center compared to total distance traveled (center: total distance ratio).\nAmphetamine-induced hyperactivity of GPR88 knockout mice was measured by injecting the animals with amphetamine and monitoring the animals' activity levels."}, "GPR88 KO and WT mice [3]": {"tested_on": "GPR88 KO and WT mice", "assay": "Amphetamine-induced hyperactivity, open field activity test", "assay_type": "in vivo, mouse", "settings": "amphetamine 2.5 mg/kg i.p., 30 min before test, monitored 20 min; both WT and GPR88 KO mice, p<0.001", "source_text": "However, the activity level of KO mice (n=18) was much higher than that of the WT mice (n=18) (p<0.001 for the first 4-min block, p<0.05 for the second 4-min block, p<0.05 during the whole 20-min period). There was a strong genotype×treatment interaction for the first 4-min block (F(3,68)=10.5, p<0.01, two-way ANOVA).\nAnother test assays open field activity. Locomotor activity is detected by photobeam breaks as the animal crosses each beam. Measurements used to assess locomotor activity include, for example, total distance traveled, total number of rearing events (animal raises up on hindlimbs), and distance traveled in the center compared to total distance traveled (center: total distance ratio). Typically, mice are placed in the center of the field. Mice will normally explore the edges/walls first and then, over time, spend more time in the center as they become familiar with the environment. Open field activity determination provides data on the general activity level of mice (i.e. hypo- or hyper-active), as well as an indication of the animal's anxiety-related behaviors in an open-space."}, "WT and GPR88 KO mice [4]": {"tested_on": "WT and GPR88 KO mice", "assay": "Amphetamine-induced reduction of prepulse inhibition (PPI) of the acoustic startle response", "settings": "amphetamine 2.5 mg/kg i.p., tested 30 minutes later, both WT and GPR88 KO mice (129sv)"}, "GPR88 KO and WT mice [5]": {"tested_on": "GPR88 KO and WT mice", "assay": "Amphetamine-induced reduction of prepulse inhibition (PPI) of acoustic startle", "settings": "amphetamine 2.5 mg/kg i.p., tested 30 min later"}},
  "data": [
    {"smiles": "CNc1ccc2oc(C[C@H]3O[C@@]4(CC[C@H]3C)O[C@H]([C@H](C)C(=O)c3ccc[nH]3)[C@H](C)C[C@H]4C)nc2c1C(=O)O", "note": "[A23187]", "values": [
      {"measurement": "increase of calcium signal above baseline levels", "setting": "[1]", "result": 200, "unit": "%"}
    ]},
    {"smiles": "Nc1ncnc2c1ncn2[C@@H]1O[C@H](COP(=O)(O)OP(=O)(O)OP(=O)(O)O)[C@@H](O)[C@H]1O", "note": "[ATP]", "values": [
      {"measurement": "increase of calcium signal above baseline levels", "setting": "[1]", "result": 200, "unit": "%"}
    ]},
    {"smiles": "CCO", "note": "[ethanol]", "values": [
      {"measurement": "effect on core body temperature (hypothermic effect)", "setting": "WT and GPR85 KO mice", "result": "reduced body temperature in both WT and KO mice"}
    ]},
    {"smiles": "CC(N)Cc1ccccc1", "note": "(centres unmarked) [amphetamine]", "values": [
      {"measurement": "locomotor activity compared to baseline in the absence of drugs", "setting": "WT and GPR88 KO mice [2]", "result": "significantly higher activity"},
      {"measurement": "locomotor activity after amphetamine compared to baseline locomotor activity in the absence of drugs", "setting": "GPR88 KO and WT mice [3]", "result": "significantly higher activity"},
      {"measurement": "startle response to the 120 dB stimulus", "setting": "WT and GPR88 KO mice [4]", "result": "significantly decreased"},
      {"measurement": "startle responses to the 120 dB stimulus after amphetamine treatment", "setting": "GPR88 KO and WT mice [5]; both WT and GPR88 KO mice (129sv)", "result": "significantly decreased"},
      {"measurement": "PPI after amphetamine treatment", "setting": "GPR88 KO and WT mice [5]; both WT and GPR88 KO mice, p<0.001", "result": "significant reduction of PPI"}
    ]}
  ]
}
